We go through four compounds from patent US20040116501A1, “Treatment of nonallergic rhinitis by selective phosphodiesterase 4 inhibitors” (priority 2002, published 2004).

Read-outs that look alike come from different tables or passages of the source. Marks after values point to notes of the source that are not given here.

The assay has as its system acetic acid-induced vascular permeability of the rat nasal mucosa. In words: Acetic acid-induced vascular permeability in Sprague-Dawley rats (nonallergic rhinitis model), Evans Blue in nasal perfusate. Type of assay: in vivo. The note with it: for inhibition of the vascular permeability of the nasal mucosa (in words): test range from 0.1 to 10 μmol/l. How it is done:
Effect on Acetic Acid-Induced Vascular Permeability in Sprague-Dawley Rats (Nonallergic Rhinitis Model)
Male Sprague-Dawley rats weighing 280-320 g are anesthetized on the day of the experiment by i.p. injection of 0.9-1 ml/animal of a 2.5% strength thiopental sodium solution. The trachea is then exposed below the epiglottis and incised at two points. A polyethylene catheter is pushed into the lower opening in the trachea in the direction of the lung (orthograde) and secured by tying with twine in order to maintain breathing. A second polyethylene catheter with LUER lock connector (cut from Original-Perfusor® line) for retrograde perfusion of the nasal cavity is introduced into the upper opening and advanced retrogradely as far as the inner opening of the choanae so that the solution can flow through the nasal cavity. 8 animals in total are placed individually on their backs on specially fabricated plastic tables in such a way that the perfusion fluid can drip out of the nostrils and be collected in the fraction collector.
During this, half of the head looks with the nose beyond the edge of the table.
A polyethylene infusion line is connected to the LUER lock connector of the catheter which has been secured retrogradely in each animal and is immersed in the container with the prepared perfusion fluid via a roller pump. The roller pump is adjusted to a constant delivery of 0.5 ml of fluid/min. A red lamp is switched on over the animals for warming.
Initial perfusion of the nasal cavity with PBS for 30 min serves to wash out the nasal mucus. During this, the fraction collector is switched on and the perfusate dripping out of the nostrils is collected in 15 min fractions (2 fractions). The second fraction is used as normal value for the experiment.
The test substances are administered topically before administration of acetic acid. They are added to the perfusion medium (PBS, Dulbecco) in molar concentrations. 4.6 mg of AWD 12-281 or other test substances such as AWD 12-322 or AWD 12-298 are diluted in accordance with their molecular weight (4.6 mg of AWD 12-322 or 5.2 mg of AWD 12-298) with 1 ml of 1N NaOH and then made up to 10 ml with double-distilled H2O. […] These solutions are perfused through the noses using the roller pump for 30 min, and the 2 samples obtained from the fraction collector are discarded. The roller pump is then switched off.
After perfusion with the substance, the plasma marker Evans Blue (1% strength solution in PBS) is injected, 1 ml per animal, into the jugular vein and then 0.1% strength acetic acid solution is forced through tubings and roller pumps into the nasal cavity until 2-3 drops of acetic acid solution drip from the conchae. The roller pumps are then switched off. The acetic acid solution is left in the nasal cavity for 30 minutes in order to ensure complete permeation of the nasal mucosa.
After an exposure time of 30 minutes, the roller pumps and the fraction collector are switched on again, and the 0.1% strength acetic acid solution in PBS is perfused retrogradely (with a constant delivery of 0.5 ml liquid/min) through the nasal cavity for 60 min. During this, the perfusate dripping out of the nostrils is continuously received in glass tubes and collected in 4 periods of 15 min. Aliquots of the samples including the control samples are placed on microtiter plates and measured using a Digiscan photometer at a wavelength of 620 nm relative to the control sample (blank). […] The Evans Blue content in 4 collected fractions, each selected over 15 minutes, of the perfusate flowing out in μg/ml is calculated by formula 1: [formula]
tn time interval (15 min)
yn Evans Blue content per time interval (μg/l per 15 min)
The means and standard deviations (x±SD) of the AUC′ for individual animals in a control group or a group of animals pretreated with substance are calculated. The inhibition of the vascular permeability is stated in percent.

[1] abbreviates: acetic acid-induced rhinitis in rats.
Setting [2] is: test substance concentration 0.1 μmol/l, single 30-minute nasal perfusion before 0.1% acetic acid, rat.
[3] abbreviates: test substance concentration 1 μmol/l, single 30-minute nasal perfusion before 0.1% acetic acid, rat.
The mark [4] stands for this setting: test substance concentration 3 μmol/l, single 30-minute nasal perfusion before 0.1% acetic acid, rat.
Where [5] appears, read: test substance concentration 10 μmol/l, single 30-minute nasal perfusion before 0.1% acetic acid, rat.
[6] abbreviates: test substance concentration 1 μmol/l, single 30-minute nasal perfusion before 0.1% acetic acid, rat, vs vehicle control.
[7] abbreviates: test substance concentration 3 μmol/l, single 30-minute nasal perfusion before 0.1% acetic acid, rat, vs vehicle control.
The mark [8] stands for this setting: test substance concentration 10 μmol/l, single 30-minute nasal perfusion before 0.1% acetic acid, rat, vs vehicle control.

`O=C(Nc1c(Cl)cncc1Cl)C(=O)c1cn(Cc2ccc(F)cc2)c2ccc(O)cc12` [AWD 12-281, N-(3,5-dichloropyrid-4-yl)-[1-(4-fluorobenzyl)-5-hydroxyindol-3-yl]glyoxylamide]: the inhibition (in general, how much of the control response was suppressed) at 0.1 µM (0.5 h, test substance concentration 0.1 μmol/l, single 30-minute nasal perfusion before 0.1% acetic acid, rat, vs vehicle control, read-out: % Inhibition) stood at 29%. In addition, the inhibition at 1 µM (0.5 h, test substance concentration 1 μmol/l, single 30-minute nasal perfusion before 0.1% acetic acid, rat, vs vehicle control, read-out: % Inhibition) amounted to 61%. The compound further yielded an inhibition at 3 µM (0.5 h, test substance concentration 3 μmol/l, single 30-minute nasal perfusion before 0.1% acetic acid, rat, vs vehicle control) of 58%. Under “0.5 h, test substance concentration 10 μmol/l, single 30-minute nasal perfusion before 0.1% acetic acid, rat, vs vehicle control, read-out: % Inhibition”, the inhibition at 10 µM came out at 76%. Also, under setting [1], the “inhibition of the vascular permeability of the nasal mucosa (in words)” value is given as “concentration-dependent inhibition”. Moreover, the “Evans Blue content (μg/ml) in the perfusate AUC′ x ± SD” value runs as follows: under setting [2], 10.88 ± 8.45 µg/mL; under setting [3], 5.96 ± 7.97 µg/mL; under setting [4], 6.41 ± 5.81 µg/mL; under setting [5], 3.68 ± 4.40 µg/mL.

As for `CCOC(C)=O.O=C(Nc1c(Cl)cncc1Cl)C(=O)c1cn(Cc2c(F)cccc2F)c2ccc(O)cc12.O=C(Nc1c(Cl)cncc1Cl)C(=O)c1cn(Cc2c(F)cccc2F)c2ccc(O)cc12` [AWD 12-298, N-(3,5-dichloropyrid-4-yl)-[1-(2,6-difluorobenzyl)-5-hydroxyindol-3-yl]glyoxylamide semi-ethyl acetate], for the setting “concentration range from 3 to 10 μmol/l, rats”, the “activity in the model of acetic acid-induced rhinitis (in words)” value is on record as “concentration-dependent activity”. The “Evans Blue content (μg/ml) in the perfusate AUC′ x ± SD” value under setting [3] was determined as 17.72 ± 9.31 µg/mL, the “Evans Blue content (μg/ml) in the perfusate AUC′ x ± SD” value under setting [4] came to 8.43 ± 5.56 µg/mL and the “Evans Blue content (μg/ml) in the perfusate AUC′ x ± SD” value under setting [5] came to 6.03 ± 7.11 µg/mL. Besides, the % Inhibition – broadly, the drop in the measured response relative to a control, in per cent – is, setting by setting: under setting [6], 0%; under setting [7], 49%; under setting [8], 64* %.

On to `O=C(Nc1c(Cl)cncc1Cl)C(=O)c1cn(Cc2ccc(O)cc2)c2ccc(O)cc12` [AWD 12-322, N-(3,5-dichloropyrid-4-yl)-2-[5-hydroxy-1-(4-hydroxybenzyl)-1H-indol-3-yl]glyoxylamide], for which the inhibition at 0.1 µM (Rattus norvegicus, 0.5 h) is 5%. This compound gave an inhibition at 1 µM (Rattus norvegicus, 0.5 h) of 50%. Also, the inhibition at 10 µM (Rattus norvegicus, 0.5 h) stood at 82%. Further, the “inhibition of the vascular permeability of the nasal mucosa (in words)” value under setting [1] is recorded as “concentration-dependent inhibition”. Moreover, the “Evans Blue content (μg/ml) in the perfusate AUC′ x ± SD” value runs as follows: under setting [2], 13.77 ± 6.65 µg/mL; under setting [3], 7.25 ± 6.77 µg/mL; under setting [5], 2.62 ± 3.44 µg/mL.

For `C[C@H]1C[C@H]2[C@@H]3CCC4=CC(=O)C=C[C@]4(C)[C@@]3(Cl)[C@@H](O)C[C@]2(C)[C@@]1(O)C(=O)CO` [Beclomethasone, beclomethasone, reference compound], the “effect against the vascular plasma permeability induced by acetic acid in the nasal mucosa (in words)” value (rat rhinitis model, summary statement) is “dose-dependent effect”. In addition, under “standard therapeutic agents, acetic acid-induced rhinitis in rats”, the “activity compared with the PDE4 inhibitors (in words)” value was “approximately the same activity”. For the same compound, the “Evans Blue content (μg/ml) in the perfusate AUC′ x ± SD” value came to 10.70 ± 2.38 µg/mL (test substance concentration 0.01 μmol/l, single 30-minute nasal perfusion before 0.1% acetic acid, rat); 4.93 ± 3.19 µg/mL under setting [2]; 0.93 ± 1.80 µg/mL under setting [3]; 5.51 ± 7.12 µg/mL under setting [4]; 4.86 ± 8.08 µg/mL under setting [5]. Besides, the “% Inhibition” value reads like this: (test substance concentration 0.01 μmol/l, single 30-minute nasal perfusion before 0.1% acetic acid, rat, vs vehicle control) 38%; (test substance concentration 0.1 μmol/l, single 30-minute nasal perfusion before 0.1% acetic acid, rat, vs vehicle control) 72* %; under setting [6], 95** %; under setting [7], 68* %; under setting [8], 81** %.
